Tests used:
[1] = system: pancreatic endoderm differentiations of hESCs; experiment: Suspension aggregate differentiation to pancreatic endoderm after Stage 1 treatment, Q-PCR; format: cell-based, human; conditions: Stage 1 cultures treated with 0.1 μM Caffeic acid or 0.17 μM Ivermectin
Method: FIGS. 10A-10I are bar graphs showing the relative gene expression levels of OCT4 (FIG. 10A), MIXL (FIG. 10B), HNF1B (FIG. 10C), HNF4A (FIG. 10D), PAX4 (FIG. 10E), NGN3 (FIG. 10F), NKX2.2 (FIG. 10G), NKX6.1 (FIG. 10H), and PTF1A (FIG. 10I) after treatment of suspension aggregate cell cultures at Stages 1 with DMSO (Control), 0.1 μM Caffeic acid or 0.17 μM Ivermectin agents. Untreated control samples were collected at d0 and d1 (left panel). Treated samples were collected at d2, d3, d5, d7, d9, d11, and d13. The columns for each day of the treated samples are (from left to right): DMSO, Caffeic acid, and Ivermectin. The cultures were differentiated to the end of Stage 4. The results from an untreated, pancreatic endoderm differentiation are shown on the right, with samples collected on days 0, 1, 2, 5, 8, 10 and 14.
To further determine the effects of the above compounds (excluding those compounds that induced off-target differentiation), three selected compounds (chelerythrine chloride (FIGS. 5 & 6), caffeic acid and Ivermectin) were screened for effects on later stages of pancreatic differentiation, (such as Stages 2-5). Human ESCs were first differentiated through Stage 1 then to Stages 2 to 5 in suspension aggregate cultures similar to that above. Stage 1 cultures were treated with DMSO, caffeic acid or Ivermectin substantially as described above. Untreated control samples were collected at d0 (hESC) and d1 (FIG. 10, left panel), while treated samples were collected at days 2, 3, 5, 7, 9, 11 and 13 (FIG. 10 d2, d3, d5, d7, d9, d11 and d13 respectively). Gene expression levels in the collected samples were analyzed using Q-PCR and compared to the d0 (hESC) sample as well as qualified pancreatic endoderm (FIG. 10, right panel). The qualified pancreatic endoderm control consisted of about 50% pancreatic endoderm, about 46% endocrine cells and about 4% “other” cells as determined by flow cytometry. Neither caffeic acid nor Ivermectin affected survival, growth and/or proliferation of pancreatic endoderm differentiations. […] Typical gene expression levels for Stages 3, 4 and 5 cells were normal; for example, increased expression of NKX6.1 and PTF1A at Stage 4, pancreatic endoderm (FIGS. 10H and 10I), and of NGN3 and NKX2.2 at Stage 5, endocrine precursor and endocrine cells (FIGS. 10 F and 10G) was observed.

[2] = system: undifferentiated hESCs growing in adherent culture; experiment: EC50 of cytotoxic effect on undifferentiated hESCs in adherent culture, real-time impedance assay; format: cell-based, human; conditions: undifferentiated hESCs, adherent culture, real-time impedance; read-out: EC50 concentrations for hES cells (cytotoxic effect)
Method: In summary, the final three (3) candidates identified from both the primary and secondary screens (EXAMPLE 1) and the full screen of the LOPAC1280™ collection (EXAMPLE 2) were Chelerythrine Chloride, Caffeic acid and Ivermectin. FIG. 11 lists the known or inferred mode(s) of action for these three compounds, as well as their structures. EC50 values for the respective cytotoxic effects on undifferentiated hESCs growing in adherent culture were determined using real-time impedance assays.
Depletion of OCT4-positive cells during Stage 1 differentiation was examined using the plating assay described above. Stage 1 differentiations of hES cells were treated from day 1 to 2 with the candidate compounds as described in Example 2 (chelerythrine chloride, caffeic acid and Ivermectin), at their EC50 concentrations for hES cells. Plated untreated and DMSO-treated aggregates were indistinguishable, and both contained discrete clusters of OCT4-positive cells. See FIG. 13A top and bottom panels for a DMSO treated example. The intensity of OCT4-positive staining in differentiating aggregate cell cultures treated with DMSO (control) was equivalent to undifferentiated hES cells.

[3] = system: hESCs (BG02); experiment: Real-time impedance assay (RT-CES) for inhibitory and cytotoxic agents on hESCs; conditions: 10 μM compound added after about 24 hours, cultured about 5 more days; compared to DMSO control
Text: The foregoing 176 selected compounds from the complete LOPAC1280™ library were then used to screen human pluripotent stem cells, e.g., hESCs, and differentiating cultures during Stage 1 (definitive endoderm) using a real-time impedance assay (ACEA biosciences RT-CES system). The RT-CES system uses 96-well trays that contain embedded microsensors to monitor changes in electrical impedance, which is translated into a measure of cell index. Any overt alteration within a cell culture can be detected, including but not limited to cell proliferation, migration, cell spreading, apoptosis, differentiation and the like. […] An increase in the cell index indicates proliferation of the cells, for example, proliferation of the undifferentiated cells. […] See also FIG. 1. […] A “scallop” cell index is one which remains high due to a confluent culture of cells, but will go down and up (scallop) between daily feedings. Conversely, cells undergoing differentiation have distinctive patterns, such as peaks and troughs in the cell index, potentially indicative of an epithelial-to-mesenchymal transition, flattening, cell migration, apoptosis or similar differentiation and growth related changes.
Impedance Assay for Inhibitory and Cytotoxic Agents. Human pluripotent stem cells, e.g., 2×10^4 hESCs (BG02), were cultured in DC-HAIF, a heregulin-based defined media, with daily feeding in the impedance monitoring plates. After about 24 hours, and 10 μM of the selected LOPAC1280™ compound was added to each well (see arrowhead in FIGS. 3 A & B) and cultured for about an additional 5 days.

Compound | Typical gene expression levels for Stages 3, 4 and 5 cells (NKX6.1, PTF1A, NGN3, NKX2.2) ([1]; Q-PCR d2-d13) | survival, growth and/or proliferation of pancreatic endoderm differentiations (pancreatic endoderm viability) ([1]; differentiated to end of Stage 4) | EC50 [2] | cell index (impedance); inhibitory or cytotoxic effect on the hESCs [3]
22, 23-dihydroavermectin B1a+22,23-dihydroavermectin B1b [Ivermectin] | normal | did not affect pancreatic endoderm viability | 170 nM | –
CN(N=O)c1cc(O)ccc1O [Dephostatin] | – | – | – | significant decrease
N#C/C(=C\c1ccc(O)c(O)c1)C(=O)NCc1ccccc1 [Tyrphostin AG 490] | – | – | – | significant decrease

From patent US9365830B2, “Agents and methods for inhibiting human pluripotent stem cell growth” (VIACYTE, INC., priority 2010, dated 2016)
